Assay results published in ChEMBL document CHEMBL6074699, “Innovative Cancer Therapies: Targeting Oncogenic Pathways through Placental Immunology, PROTAC Technology, and Kinase Degradation” (ACS Med Chem Lett, 2024).

Assays:
Assay type in all cases: cell-based
[1] = test system: Calu-1; assay: PROTAC activity at DDB1/CyclinD1 in human Calu-1 cells assessed as induction of cyclin D1 degradation at 400 nM incubated for 16 hrs relative to control
[2] = test system: Calu-1; assay: PROTAC activity at DDB1/CDK4 in human Calu-1 cells assessed as induction of CDK4 degradation at 400 nM incubated for 16 hrs relative to control
[3] = test system: Calu-1; assay: PROTAC activity at DDB1/CyclinD1 in human Calu-1 cells assessed as induction of cyclin D1 degradation at 40 nM incubated for 16 hrs relative to control
[4] = test system: Calu-1; assay: PROTAC activity at DDB1/CDK4 in human Calu-1 cells assessed as induction of CDK4 degradation at 40 nM incubated for 16 hrs relative to control

CNc1ccc(C(=O)Nc2ccc(N(C)C)nn2)c(NCCCCNC(=O)CCN2CCN(c3ccc(Nc4ncc5c(C)c(C(C)=O)c(=O)n(C6CCCC6)c5n4)nc3)CC2)n1
Activity [1]: > 80%
Activity [2]: < 80%
Activity [3]: > 80%
Activity [4]: < 80%

CC(=O)c1c(C)c2cnc(Nc3ccc(N4CCN(CC(=O)NCCCCCNc5nc(C6CC6)ccc5C(=O)Nc5ccc(N(C)C)nn5)CC4)cn3)nc2n(C2CCCC2)c1=O
Activity [1]: > 80%
Activity [2]: > 80%
Activity [3]: > 80%
Activity [4]: > 80%

CC(=O)c1c(C)c2cnc(Nc3ccc(N4CCN(CC(=O)NCCCCCCCNc5nc(C)ccc5C(=O)Nc5ccc(N(C)C)nn5)CC4)cn3)nc2n(C2CCCC2)c1=O
Activity [1]: > 80%
Activity [2]: > 80%
Activity [3]: > 80%
Activity [4]: < 80%

CC(=O)c1c(C)c2cnc(Nc3ccc(N4CCN(CC(=O)NCCCCCCCNc5nc(C)ccc5C(=O)Nc5ccc(C)c(C6CC6)n5)CC4)cn3)nc2n(C2CCCC2)c1=O
Activity [1]: > 80%
Activity [2]: > 80%
Activity [3]: > 80%
Activity [4]: < 80%

COc1ccc(NC(=O)c2ccc(C)nc2NCCCCCCCNC(=O)CN2CCN(c3ccc(Nc4ncc5c(C)c(C(C)=O)c(=O)n(C6CCCC6)c5n4)nc3)CC2)nn1
Activity [1]: > 80%
Activity [2]: > 80%
Activity [3]: > 80%
Activity [4]: < 80%

CNc1ccc(C(=O)Nc2ccc(N(C)C)nn2)c(NCCCCC(C)NC(=O)CN2CCN(c3ccc(Nc4ncc5c(C)c(C(C)=O)c(=O)n(C6CCCC6)c5n4)nc3)CC2)n1 (centres undefined)
Activity [1]: > 80%
Activity [2]: > 80%
Activity [3]: > 80%
Activity [4]: > 80%
